This note sets out measurements from article PMC10763615, “Identification and engineering of potent cyclic peptides with selective or promiscuous binding through biochemical profiling and bioinformatic data analysis” (RSC Chemical Biology, 2023).

Where two headings read alike, the source gives them in different places. Positions of bridges follow the written chain, without caps; N, C: chain ends. Residues, ends and D or L forms follow the SMILES beside them.

Holding throughout (type): binding
For one assay, the target named is T1, FGF-R4 ECD (Homo sapiens, UniProt P22455).
T1 construct: DNA constructs for the extracellular domain (ECD) of human FGF-; HPC4 (C); made in house; host or cells: HEK 293-6E
T1 sequence (P22455 22-369 limits assumed): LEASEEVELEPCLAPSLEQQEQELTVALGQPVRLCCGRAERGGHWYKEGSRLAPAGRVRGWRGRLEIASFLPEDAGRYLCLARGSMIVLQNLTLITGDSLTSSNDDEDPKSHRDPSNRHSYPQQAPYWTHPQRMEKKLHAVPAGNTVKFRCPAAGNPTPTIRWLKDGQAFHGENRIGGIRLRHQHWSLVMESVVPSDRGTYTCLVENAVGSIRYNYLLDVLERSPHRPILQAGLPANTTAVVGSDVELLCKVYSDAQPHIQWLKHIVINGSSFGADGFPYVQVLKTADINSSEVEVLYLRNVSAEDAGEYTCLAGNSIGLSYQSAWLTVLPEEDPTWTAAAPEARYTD
In words: single concentration BLI of crude peptides. As to conditions: read-out: KD (4). A digest of the protocol: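 BLI, streptavidin sensors loaded with biotinylated receptor ECD. Single-point: ~1 μM crude peptide, PBS pH7.4/0.05% Tween-20/0.01% BSA; association then dissociation in buffer. KD corrected for UPLC-CAD-determined concentration.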

Another assay has as its target T2, FGF-R3C ECD (Homo sapiens, UniProt P22607).
T2 sequence (P22607 23-375 limits assumed): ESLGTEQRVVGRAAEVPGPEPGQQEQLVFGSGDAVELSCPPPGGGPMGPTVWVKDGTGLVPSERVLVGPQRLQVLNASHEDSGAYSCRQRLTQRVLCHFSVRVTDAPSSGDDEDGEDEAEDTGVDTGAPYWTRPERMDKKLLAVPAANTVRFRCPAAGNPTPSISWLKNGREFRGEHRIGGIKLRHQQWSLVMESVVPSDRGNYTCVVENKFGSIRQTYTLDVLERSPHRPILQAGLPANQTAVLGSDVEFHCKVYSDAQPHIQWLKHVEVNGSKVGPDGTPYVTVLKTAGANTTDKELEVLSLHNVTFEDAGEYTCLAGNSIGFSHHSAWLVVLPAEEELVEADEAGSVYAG
As to the kind of experiment: biochemical. Also noted: DNA constructs for the extracellular domain (ECD) of human FGF-; HPC4 (C); made in house; host or cells: HEK 293-6E. The method in brief:
(§1)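 Biotinylated FGF-R ECD on streptavidin biosensors was dipped into ~1 μM crude peptide in PBS pH7.4 with 0.05% Tween-20 and 0.01% BSA for association, then into buffer for dissociation, and followed by BLI. Fitted KD values were adjusted for peptide concentration measured by UPLC-CAD.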

A further assay has as its target T3, FGF-R1C ECD (Homo sapiens, UniProt P11362).
T3 sequence (P11362 22-376 limits assumed): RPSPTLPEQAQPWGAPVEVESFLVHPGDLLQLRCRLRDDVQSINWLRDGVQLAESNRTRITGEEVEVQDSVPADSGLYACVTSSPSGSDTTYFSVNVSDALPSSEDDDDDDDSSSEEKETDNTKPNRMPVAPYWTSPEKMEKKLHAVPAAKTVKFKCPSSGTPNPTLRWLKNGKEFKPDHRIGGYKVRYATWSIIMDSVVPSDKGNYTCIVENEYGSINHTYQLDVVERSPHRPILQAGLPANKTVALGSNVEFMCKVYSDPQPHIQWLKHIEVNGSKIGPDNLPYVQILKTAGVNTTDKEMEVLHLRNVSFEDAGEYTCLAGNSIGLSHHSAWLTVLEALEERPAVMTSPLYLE
In words: biochemical. Also noted: DNA constructs for the extracellular domain (ECD) of human FGF-; HPC4 (C); made in house; host or cells: HEK 293-6E. A digest of the protocol:
as §1

Where [1] appears, read: crude NNK peptides, single concentration BLI (Table S3).
[2] abbreviates: crude T18 selection 1 (1:1:1) peptides, single concentration BLI (Table S4).

Broadly, the Kd is the equilibrium constant for the complex coming apart. With `CC[C@H](C)[C@@H]1NC(=O)[C@H](CC(N)=O)NC(=O)[C@@H](NC(=O)[C@H](CCSC)NC(C)=O)CSSC[C@@H](C(=O)NCC(=O)N[C@@H](CO)C(=O)NCC(=O)N[C@@H](CO)C(=O)N[C@@H](CC(=O)O)C(=O)N[C@@H](Cc2ccc(O)cc2)C(=O)N[C@@H](CCCCN)C(=O)N[C@@H](CC(=O)O)C(=O)N[C@@H](CC(=O)O)C(=O)N[C@@H](CC(=O)O)C(=O)N[C@@H](CC(=O)O)C(=O)N[C@@H](CCCCN)C(N)=O)NC(=O)[C@H](C(C)C)NC(=O)[C@H](CO)NC(=O)[C@H](CC(C)C)NC(=O)[C@H]([C@@H](C)CC)NC(=O)[C@H](CCCCN)NC(=O)[C@H](Cc2ccc(O)cc2)NC(=O)[C@H](CC(C)C)NC(=O)[C@H](CC(C)C)NC1=O` (Ac-MCNILLYKILSVCGSGSDYKDDDDK-NH2; disulfide 2-13), the dissociation constant Kd at FGF-R4 ECD (setting [1]) is 0.105 µM; on FGF-R3C ECD, above 10 µM; on FGF-R1C ECD, above 10 µM.
For the compound `CC[C@H](C)[C@@H]1NC(=O)[C@H](Cc2ccc(O)cc2)NC(=O)[C@H](C)NC(=O)[C@H](C(C)C)NC(=O)[C@H](Cc2ccc(O)cc2)NC(=O)CNC(=O)[C@H](Cc2c[nH]cn2)NC(=O)[C@H]([C@@H](C)CC)NC(=O)[C@H]([C@@H](C)CC)NC(=O)[C@H](CO)NC(=O)[C@H](CC(C)C)NC(=O)[C@H](CC(N)=O)NC(=O)[C@@H](NC(=O)[C@H](CCSC)NC(C)=O)CSSC[C@@H](C(=O)NCC(=O)N[C@@H](CO)C(=O)NCC(=O)N[C@@H](CO)C(=O)N[C@@H](CC(=O)O)C(=O)N[C@@H](Cc2ccc(O)cc2)C(=O)N[C@@H](CCCCN)C(=O)N[C@@H](CC(=O)O)C(=O)N[C@@H](CC(=O)O)C(=O)N[C@@H](CC(=O)O)C(=O)N[C@@H](CC(=O)O)C(=O)N[C@@H](CCCCN)C(N)=O)NC1=O` (Ac-MCNLSIIHGYVAYICGSGSDYKDDDDK-NH2; disulfide 2-15), the dissociation constant Kd is 0.001 µM at FGF-R4 ECD (setting [2]), above 10 µM at FGF-R3C ECD and above 10 µM at FGF-R1C ECD.
With `CC[C@H](C)[C@@H]1NC(=O)[C@H](CCCCN)NC(=O)[C@H](Cc2ccccc2)NC(=O)[C@H](Cc2ccccc2)NC(=O)[C@H](Cc2c[nH]cn2)NC(=O)[C@H]([C@@H](C)CC)NC(=O)[C@@H]2CCCN2C(=O)[C@@H](NC(=O)[C@H](CCSC)NC(C)=O)CSSC[C@@H](C(=O)NCC(=O)N[C@@H](CO)C(=O)NCC(=O)N[C@@H](CO)C(=O)N[C@@H](CCC(=O)O)C(=O)N[C@@H](CCC(=O)O)C(=O)NCC(=O)N[C@@H](CO)C(=O)NCC(=O)N[C@@H](CO)C(=O)N[C@@H](CC(=O)O)C(=O)N[C@@H](Cc2ccc(O)cc2)C(=O)N[C@@H](CCCCN)C(=O)N[C@@H](CC(=O)O)C(=O)N[C@@H](CC(=O)O)C(=O)N[C@@H](CC(=O)O)C(=O)N[C@@H](CC(=O)O)C(=O)N[C@@H](CCCCN)C(N)=O)NC(=O)[C@H](Cc2c[nH]cn2)NC(=O)[C@H](CCCNC(=N)N)NC(=O)[C@H](Cc2ccc(O)cc2)NC(=O)[C@H](C(C)C)NC1=O` (Ac-MCPIHFFKIVYRHCGSGSEEGSGSDYKDDDDK-NH2; disulfide 2-14), the figures for the Kd at FGF-R4 ECD (setting [2]), on FGF-R3C ECD and at FGF-R1C ECD were 0.01 µM, above 10 µM and 0.01 µM, respectively.
As for `CC[C@H](C)[C@@H]1NC(=O)[C@H](CC(C)C)NC(=O)[C@H](Cc2c[nH]c3ccccc23)NC(=O)[C@H](CCCCN)NC(=O)[C@@H]2CCCN2C(=O)[C@@H](NC(=O)[C@H](CCSC)NC(C)=O)CSSC[C@@H](C(=O)NCC(=O)N[C@@H](CO)C(=O)NCC(=O)N[C@@H](CO)C(=O)N[C@@H](CC(=O)O)C(=O)N[C@@H](Cc2ccc(O)cc2)C(=O)N[C@@H](CCCCN)C(=O)N[C@@H](CC(=O)O)C(=O)N[C@@H](CC(=O)O)C(=O)N[C@@H](CC(=O)O)C(=O)N[C@@H](CC(=O)O)C(=O)N[C@@H](CCCCN)C(N)=O)NC(=O)[C@H](CC(N)=O)NC(=O)[C@H](CC(C)C)NC(=O)[C@H](CC(C)C)NC(=O)[C@H](C(C)C)NC(=O)[C@H](CCCCN)NC1=O` (Ac-MCPKWLIKVLLNCGSGSDYKDDDDK-NH2; disulfide 2-13), the Kd on FGF-R4 ECD (setting [1]) was 4.19 µM; at FGF-R3C ECD, above 10 µM; at FGF-R1C ECD, above 10 µM.
Take `CSCC[C@H](NC(C)=O)C(=O)N[C@H]1CSSC[C@@H](C(=O)NCC(=O)N[C@@H](CO)C(=O)NCC(=O)N[C@@H](CO)C(=O)N[C@@H](CC(=O)O)C(=O)N[C@@H](Cc2ccc(O)cc2)C(=O)N[C@@H](CCCCN)C(=O)N[C@@H](CC(=O)O)C(=O)N[C@@H](CC(=O)O)C(=O)N[C@@H](CC(=O)O)C(=O)N[C@@H](CC(=O)O)C(=O)N[C@@H](CCCCN)C(N)=O)NC(=O)[C@H]([C@@H](C)O)NC(=O)[C@H](CCSC)NC(=O)[C@H](CC(C)C)NC(=O)[C@H](CCCNC(=N)N)NC(=O)[C@H](Cc2c[nH]c3ccccc23)NC(=O)[C@H](CC(C)C)NC(=O)[C@H](CC(C)C)NC(=O)[C@H](Cc2ccccc2)NC(=O)[C@H](Cc2ccc(O)cc2)NC(=O)[C@H](CCCCN)NC(=O)[C@@H]2CCCN2C1=O` (Ac-MCPKYFLLWRLMTCGSGSDYKDDDDK-NH2; disulfide 2-14): the equilibrium dissociation constant (Kd) is 1.84 µM at FGF-R4 ECD (setting [1]), above 10 µM on FGF-R3C ECD and above 10 µM on FGF-R1C ECD.
Regarding `CC[C@H](C)[C@@H]1NC(=O)[C@H](C)NC(=O)[C@H](Cc2ccc(O)cc2)NC(=O)[C@@H]2CCCN2C(=O)[C@@H](NC(=O)[C@H](CCSC)NC(C)=O)CSSC[C@@H](C(=O)NCC(=O)N[C@@H](CO)C(=O)NCC(=O)N[C@@H](CO)C(=O)N[C@@H](CCC(=O)O)C(=O)N[C@@H](CCC(=O)O)C(=O)NCC(=O)N[C@@H](CO)C(=O)NCC(=O)N[C@@H](CO)C(=O)N[C@@H](CC(=O)O)C(=O)N[C@@H](Cc2ccc(O)cc2)C(=O)N[C@@H](CCCCN)C(=O)N[C@@H](CC(=O)O)C(=O)N[C@@H](CC(=O)O)C(=O)N[C@@H](CC(=O)O)C(=O)N[C@@H](CC(=O)O)C(=O)N[C@@H](CCCCN)C(N)=O)NC(=O)[C@H]([C@@H](C)O)NC(=O)[C@H](CCCCN)NC(=O)[C@H](CCCNC(=N)N)NC(=O)[C@H](Cc2c[nH]c3ccccc23)NC(=O)[C@H](CCCCN)NC(=O)[C@H](Cc2ccc(O)cc2)NC(=O)[C@H](Cc2c[nH]c3ccccc23)NC(=O)[C@H](Cc2ccc(O)cc2)NC1=O` (Ac-MCPYAIYWYKWRKTCGSGSEEGSGSDYKDDDDK-NH2; disulfide 2-15), the Kd at FGF-R4 ECD (setting [2]) is 0.011 µM; on FGF-R3C ECD, above 10 µM; at FGF-R1C ECD, above 10 µM.
Take `CSCC[C@H](NC(C)=O)C(=O)N[C@H]1CSSC[C@@H](C(=O)NCC(=O)N[C@@H](CO)C(=O)NCC(=O)N[C@@H](CO)C(=O)N[C@@H](CC(=O)O)C(=O)N[C@@H](Cc2ccc(O)cc2)C(=O)N[C@@H](CCCCN)C(=O)N[C@@H](CC(=O)O)C(=O)N[C@@H](CC(=O)O)C(=O)N[C@@H](CC(=O)O)C(=O)N[C@@H](CC(=O)O)C(=O)N[C@@H](CCCCN)C(N)=O)NC(=O)[C@H](CC(=O)O)NC(=O)[C@H](CCCNC(=N)N)NC(=O)[C@H](Cc2c[nH]c3ccccc23)NC(=O)[C@H](CC(=O)O)NC(=O)[C@H](Cc2c[nH]cn2)NC(=O)[C@H](Cc2c[nH]c3ccccc23)NC(=O)[C@H](CC(=O)O)NC(=O)[C@H](Cc2ccc(O)cc2)NC(=O)[C@H](Cc2ccc(O)cc2)NC(=O)[C@H](CC(=O)O)NC(=O)[C@H](Cc2ccc(O)cc2)NC(=O)[C@@H]2CCCN2C1=O` (Ac-MCPYDYYDWHDWRDCGSGSDYKDDDDK-NH2; disulfide 2-15): the dissociation constant (Kd) on FGF-R4 ECD (setting [2]) is 1.59 µM; on FGF-R3C ECD it was above 10 µM; on FGF-R1C ECD it was above 10 µM.
